ChEMBL document CHEMBL1201862, “PubChem BioAssay data set” (2004)
Each block holds one compound with its values, some of them ahead of it. Active and inactive are the calls of the source.

What was measured:
[1] = target: Intestinal-type alkaline phosphatase (Mus musculus, UniProt P24822); assay: PubChem AID 488785; assay type: functional
[2] = target: T1, Alkaline phosphatase, tissue-nonspecific isozyme (Homo sapiens, UniProt P05186); assay: TNAP enzyme inhibition by screening hits, dose response, selectivity assay for mouse IAP inhibitor project, biochemical, human TNAP, uHTS hits (AID 488906); assay type: functional
T1 sequence (P05186 whole entry): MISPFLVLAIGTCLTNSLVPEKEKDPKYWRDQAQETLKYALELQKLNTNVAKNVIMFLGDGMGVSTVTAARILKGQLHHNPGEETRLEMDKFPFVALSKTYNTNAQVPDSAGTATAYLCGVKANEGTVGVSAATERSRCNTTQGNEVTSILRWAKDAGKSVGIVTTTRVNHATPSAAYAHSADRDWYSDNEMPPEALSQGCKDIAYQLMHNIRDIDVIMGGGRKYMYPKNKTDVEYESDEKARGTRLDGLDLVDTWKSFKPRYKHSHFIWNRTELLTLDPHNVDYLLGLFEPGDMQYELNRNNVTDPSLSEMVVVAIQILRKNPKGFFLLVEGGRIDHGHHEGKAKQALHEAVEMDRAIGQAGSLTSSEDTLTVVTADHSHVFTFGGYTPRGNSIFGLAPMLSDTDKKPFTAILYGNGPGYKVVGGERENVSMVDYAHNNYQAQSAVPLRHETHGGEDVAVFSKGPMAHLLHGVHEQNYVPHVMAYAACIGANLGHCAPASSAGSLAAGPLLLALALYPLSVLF

[3] = target: T2, Histone-lysine N-methyltransferase NSD2 (Homo sapiens, UniProt O96028); assay type: biochemical
T2 sequence (O96028 whole entry): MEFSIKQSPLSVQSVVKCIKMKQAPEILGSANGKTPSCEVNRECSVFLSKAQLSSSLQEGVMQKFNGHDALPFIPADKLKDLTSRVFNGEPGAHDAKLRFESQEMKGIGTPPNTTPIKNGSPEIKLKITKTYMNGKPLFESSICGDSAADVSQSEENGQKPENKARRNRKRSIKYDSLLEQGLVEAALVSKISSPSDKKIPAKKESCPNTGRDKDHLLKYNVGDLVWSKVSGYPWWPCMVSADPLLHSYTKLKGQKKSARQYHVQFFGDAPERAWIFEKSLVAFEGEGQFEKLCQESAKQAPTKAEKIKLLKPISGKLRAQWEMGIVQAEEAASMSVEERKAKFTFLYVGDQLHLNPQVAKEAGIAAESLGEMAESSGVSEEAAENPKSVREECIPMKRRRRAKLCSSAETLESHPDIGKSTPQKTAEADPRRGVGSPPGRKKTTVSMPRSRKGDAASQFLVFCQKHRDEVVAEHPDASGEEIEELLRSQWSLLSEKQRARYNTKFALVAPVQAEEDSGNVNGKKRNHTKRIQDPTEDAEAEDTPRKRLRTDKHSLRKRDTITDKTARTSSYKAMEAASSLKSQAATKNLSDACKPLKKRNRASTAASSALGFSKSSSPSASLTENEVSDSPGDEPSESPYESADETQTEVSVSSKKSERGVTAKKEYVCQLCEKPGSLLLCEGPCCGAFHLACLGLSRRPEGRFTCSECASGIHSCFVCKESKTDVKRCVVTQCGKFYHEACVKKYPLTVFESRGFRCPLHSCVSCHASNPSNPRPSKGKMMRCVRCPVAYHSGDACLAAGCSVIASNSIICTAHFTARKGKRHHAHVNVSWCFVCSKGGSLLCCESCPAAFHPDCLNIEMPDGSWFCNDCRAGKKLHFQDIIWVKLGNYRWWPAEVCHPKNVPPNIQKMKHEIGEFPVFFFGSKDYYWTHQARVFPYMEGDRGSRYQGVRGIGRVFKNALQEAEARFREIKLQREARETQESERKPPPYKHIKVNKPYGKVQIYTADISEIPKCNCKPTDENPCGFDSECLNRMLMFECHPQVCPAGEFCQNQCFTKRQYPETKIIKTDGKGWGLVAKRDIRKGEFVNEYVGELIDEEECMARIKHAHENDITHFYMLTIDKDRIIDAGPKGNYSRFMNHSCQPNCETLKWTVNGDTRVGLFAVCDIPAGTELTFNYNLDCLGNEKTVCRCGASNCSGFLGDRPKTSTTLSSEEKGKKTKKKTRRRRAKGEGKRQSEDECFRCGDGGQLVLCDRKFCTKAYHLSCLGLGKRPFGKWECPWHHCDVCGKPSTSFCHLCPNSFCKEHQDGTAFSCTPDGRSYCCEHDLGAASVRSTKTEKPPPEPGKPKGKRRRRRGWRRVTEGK

[4] = target: T3, Intestinal-type alkaline phosphatase (Homo sapiens, UniProt P09923); assay: inhibition of human intestinal alkaline phosphatase – biochemical, dose response (AID 488876); assay type: functional
T3 sequence (P09923 whole entry): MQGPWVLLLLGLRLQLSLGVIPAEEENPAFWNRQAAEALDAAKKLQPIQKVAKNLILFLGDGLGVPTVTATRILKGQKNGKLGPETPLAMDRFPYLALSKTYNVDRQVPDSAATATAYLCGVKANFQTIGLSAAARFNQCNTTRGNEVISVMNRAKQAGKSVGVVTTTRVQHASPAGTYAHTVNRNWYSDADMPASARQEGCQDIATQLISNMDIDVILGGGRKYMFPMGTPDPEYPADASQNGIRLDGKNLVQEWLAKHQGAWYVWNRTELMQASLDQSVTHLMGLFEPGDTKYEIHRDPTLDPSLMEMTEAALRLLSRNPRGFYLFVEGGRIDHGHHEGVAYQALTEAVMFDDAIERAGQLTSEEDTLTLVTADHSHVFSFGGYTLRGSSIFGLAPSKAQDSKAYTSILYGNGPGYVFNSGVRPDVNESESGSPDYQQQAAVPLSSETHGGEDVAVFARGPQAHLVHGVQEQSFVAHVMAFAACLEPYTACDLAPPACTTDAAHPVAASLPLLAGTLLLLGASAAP

[5] = MIN6 cell viability loss – mouse insulinoma, cytotoxicity control, dose response (AID 2122); assay type: functional;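 also: confirmatory high-throughput counterscreen run to flag cytotoxic compounds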
[6] = decrease of insulin promoter-GFP reporter – imaging, high-content screening, mouse beta cells (AID 1628); assay type: functional; settings: MIN6
[7] = target: T3, Intestinal-type alkaline phosphatase; assay: human intestinal alkaline phosphatase activators, dose response, biochemical, luminescence, uHTS hits (AID 463120); assay type: functional
[8] = target: T1, Alkaline phosphatase, tissue-nonspecific isozyme; assay: potency against alkaline phosphatase TNAP – biochemical, luminescent, dose response, SAR follow-up (AID 1056)
[9] = target: Alkaline phosphatase, placental type (Homo sapiens, UniProt P05187); assay: human placental alkaline phosphatase inhibition – biochemical, luminescence, confirmation (AID 1512); assay type: functional
Alkaline phosphatase, placental type, sequence (P05187 whole entry, the tested form may be a part): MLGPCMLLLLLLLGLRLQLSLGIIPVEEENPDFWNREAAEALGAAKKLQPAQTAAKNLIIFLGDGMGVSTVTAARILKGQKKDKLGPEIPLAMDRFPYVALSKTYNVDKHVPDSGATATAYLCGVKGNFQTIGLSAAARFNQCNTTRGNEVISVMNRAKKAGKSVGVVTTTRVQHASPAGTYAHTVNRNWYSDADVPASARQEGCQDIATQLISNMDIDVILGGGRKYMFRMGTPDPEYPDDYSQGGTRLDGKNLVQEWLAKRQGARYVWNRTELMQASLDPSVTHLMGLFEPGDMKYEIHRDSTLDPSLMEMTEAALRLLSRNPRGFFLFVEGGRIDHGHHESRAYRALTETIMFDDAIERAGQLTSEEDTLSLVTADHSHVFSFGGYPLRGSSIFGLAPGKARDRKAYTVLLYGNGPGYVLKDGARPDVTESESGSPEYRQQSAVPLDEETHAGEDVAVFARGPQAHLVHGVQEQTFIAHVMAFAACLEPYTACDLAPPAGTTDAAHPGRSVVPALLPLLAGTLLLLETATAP

[10] = target: T4, E3 ubiquitin-protein ligase XIAP (Homo sapiens, UniProt P98170); assay: SAR analysis of Antagonists of XIAP-Bir3 domain of IAP-family anti-apoptotic proteins. [Related pubchem assays (depositor defined):AID1018, AID1449, AID1513, AID1514, AID1638]
T4 sequence (P98170 whole entry, the tested form may be a part): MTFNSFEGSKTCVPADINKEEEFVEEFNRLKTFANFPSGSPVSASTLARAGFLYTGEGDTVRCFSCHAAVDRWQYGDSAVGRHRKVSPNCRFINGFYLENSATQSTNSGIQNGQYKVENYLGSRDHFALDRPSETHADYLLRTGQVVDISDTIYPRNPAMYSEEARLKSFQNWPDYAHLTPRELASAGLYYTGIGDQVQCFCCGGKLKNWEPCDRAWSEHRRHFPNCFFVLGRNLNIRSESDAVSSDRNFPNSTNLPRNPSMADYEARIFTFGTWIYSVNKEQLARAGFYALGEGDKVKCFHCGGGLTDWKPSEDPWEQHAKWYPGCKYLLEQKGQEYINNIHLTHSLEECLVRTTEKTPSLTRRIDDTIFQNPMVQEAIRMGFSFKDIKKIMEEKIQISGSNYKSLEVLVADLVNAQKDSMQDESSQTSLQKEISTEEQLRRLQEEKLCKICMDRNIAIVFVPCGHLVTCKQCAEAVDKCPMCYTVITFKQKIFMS

[11] = target: T4, E3 ubiquitin-protein ligase XIAP; assay: SAR analysis of Antagonists of IAP-family anti-apoptotic proteins. [Related pubchem assays (depositor defined):AID1018, AID1449, AID1513, AID1514, AID1638]
[12] = target: T5, Coagulation factor XII (Homo sapiens, UniProt P00748); assay: activated coagulation factor XII inhibitor potency, concentration-effect curve, cell-free (AID 716); assay type: functional
T5 sequence (P00748 whole entry): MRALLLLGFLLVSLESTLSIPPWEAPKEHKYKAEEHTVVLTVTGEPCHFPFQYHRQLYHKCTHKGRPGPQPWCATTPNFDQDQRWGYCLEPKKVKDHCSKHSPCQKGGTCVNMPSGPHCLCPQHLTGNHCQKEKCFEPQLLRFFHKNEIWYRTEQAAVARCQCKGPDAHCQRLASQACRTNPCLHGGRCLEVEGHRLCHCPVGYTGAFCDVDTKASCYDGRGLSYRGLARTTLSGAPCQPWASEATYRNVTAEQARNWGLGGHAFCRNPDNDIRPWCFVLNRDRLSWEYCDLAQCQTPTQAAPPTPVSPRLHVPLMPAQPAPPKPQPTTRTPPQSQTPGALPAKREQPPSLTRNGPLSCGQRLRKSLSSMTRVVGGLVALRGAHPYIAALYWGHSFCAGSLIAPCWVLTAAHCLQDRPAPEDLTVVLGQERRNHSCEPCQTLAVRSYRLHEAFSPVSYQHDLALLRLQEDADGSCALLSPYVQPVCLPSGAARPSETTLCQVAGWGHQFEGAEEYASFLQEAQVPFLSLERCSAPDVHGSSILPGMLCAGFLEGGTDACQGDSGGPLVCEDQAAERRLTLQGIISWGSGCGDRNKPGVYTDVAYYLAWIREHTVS

[13] = target: Genome polyprotein (dengue virus type 2, UniProt P29990); assay: flavivirus cap methylation enzyme inhibition – biochemical, confirmation dose response, primary screen (AID 588689); assay type: functional
Genome polyprotein, sequence (P29990 2492-3391 limits assumed): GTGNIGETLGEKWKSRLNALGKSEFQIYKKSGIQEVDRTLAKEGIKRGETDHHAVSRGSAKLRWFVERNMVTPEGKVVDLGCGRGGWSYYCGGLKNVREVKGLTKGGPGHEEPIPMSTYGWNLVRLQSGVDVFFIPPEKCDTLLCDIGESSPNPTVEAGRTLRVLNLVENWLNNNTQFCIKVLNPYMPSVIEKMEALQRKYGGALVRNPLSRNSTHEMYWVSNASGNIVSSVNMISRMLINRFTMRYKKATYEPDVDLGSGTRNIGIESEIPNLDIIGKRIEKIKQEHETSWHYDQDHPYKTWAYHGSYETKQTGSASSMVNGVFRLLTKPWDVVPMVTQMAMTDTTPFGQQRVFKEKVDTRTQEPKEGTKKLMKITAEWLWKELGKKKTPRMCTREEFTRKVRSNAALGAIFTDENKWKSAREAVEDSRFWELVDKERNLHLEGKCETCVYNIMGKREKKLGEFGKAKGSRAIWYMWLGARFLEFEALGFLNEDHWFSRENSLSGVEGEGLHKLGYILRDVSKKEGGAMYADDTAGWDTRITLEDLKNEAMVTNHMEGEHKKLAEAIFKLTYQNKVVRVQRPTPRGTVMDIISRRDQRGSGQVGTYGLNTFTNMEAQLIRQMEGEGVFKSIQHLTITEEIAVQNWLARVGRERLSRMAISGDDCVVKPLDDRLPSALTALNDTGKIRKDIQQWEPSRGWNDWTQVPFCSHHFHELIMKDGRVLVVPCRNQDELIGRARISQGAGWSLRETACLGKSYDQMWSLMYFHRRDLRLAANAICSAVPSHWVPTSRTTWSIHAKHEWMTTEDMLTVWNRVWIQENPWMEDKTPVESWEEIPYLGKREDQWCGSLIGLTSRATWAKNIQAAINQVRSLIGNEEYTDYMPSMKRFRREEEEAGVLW

[14] = target: T6, SUMO-activating enzyme (Homo sapiens, UniProt Q9UBT2); assay: blockers of SAE1/SAE2–UBC9 SUMO transfer – biochemical, HTRF, uHTS, primary screen (AID 2006); assay type: protein-complex assay
T6 sequence (Q9UBE0 whole entry): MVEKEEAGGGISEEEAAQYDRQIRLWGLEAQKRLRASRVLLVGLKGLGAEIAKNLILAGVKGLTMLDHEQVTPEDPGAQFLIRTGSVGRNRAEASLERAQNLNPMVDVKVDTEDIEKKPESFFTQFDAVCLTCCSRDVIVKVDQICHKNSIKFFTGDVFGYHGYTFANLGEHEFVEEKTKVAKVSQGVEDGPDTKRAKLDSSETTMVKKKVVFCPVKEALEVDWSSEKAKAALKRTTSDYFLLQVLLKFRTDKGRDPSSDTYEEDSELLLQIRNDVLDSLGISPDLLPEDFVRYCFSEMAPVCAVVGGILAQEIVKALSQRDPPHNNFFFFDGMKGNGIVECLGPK
T6 sequence (Q9UBT2 whole entry): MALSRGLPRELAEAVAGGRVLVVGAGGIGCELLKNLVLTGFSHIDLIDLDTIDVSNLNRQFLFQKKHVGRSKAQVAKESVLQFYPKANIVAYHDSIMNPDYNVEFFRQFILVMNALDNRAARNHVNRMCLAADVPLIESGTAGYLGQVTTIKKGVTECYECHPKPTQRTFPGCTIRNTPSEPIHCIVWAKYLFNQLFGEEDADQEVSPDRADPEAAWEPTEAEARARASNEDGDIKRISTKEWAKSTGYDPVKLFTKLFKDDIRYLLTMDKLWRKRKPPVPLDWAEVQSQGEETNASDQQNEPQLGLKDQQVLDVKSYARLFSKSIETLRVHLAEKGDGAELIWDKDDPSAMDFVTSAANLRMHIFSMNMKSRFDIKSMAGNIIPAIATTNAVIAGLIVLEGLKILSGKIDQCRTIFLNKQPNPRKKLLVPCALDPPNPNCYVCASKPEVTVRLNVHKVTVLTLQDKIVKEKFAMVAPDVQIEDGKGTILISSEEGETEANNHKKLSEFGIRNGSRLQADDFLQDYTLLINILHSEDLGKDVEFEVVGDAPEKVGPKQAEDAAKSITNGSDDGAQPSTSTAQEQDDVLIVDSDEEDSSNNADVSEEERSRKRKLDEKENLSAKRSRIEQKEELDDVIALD

[15] = target: T6, SUMO-activating enzyme; assay: blockers of UBC9-mediated SUMO conjugation – biochemical, AlphaScreen, SUMOylation inhibitor project, confirmation (AID 2018); assay type: functional
[16] = target: T7, Aminopeptidase N (Plasmodium falciparum FcB1/Columbia, UniProt O96935); assay: malaria alanyl aminopeptidase activity blockers – biochemical, fluorogenic H-Leu-NHMec substrate, 1536-well (AID 1445); set-up: species or system Plasmodium falciparum 3D7, 3D7
T7 sequence (O96935 whole entry): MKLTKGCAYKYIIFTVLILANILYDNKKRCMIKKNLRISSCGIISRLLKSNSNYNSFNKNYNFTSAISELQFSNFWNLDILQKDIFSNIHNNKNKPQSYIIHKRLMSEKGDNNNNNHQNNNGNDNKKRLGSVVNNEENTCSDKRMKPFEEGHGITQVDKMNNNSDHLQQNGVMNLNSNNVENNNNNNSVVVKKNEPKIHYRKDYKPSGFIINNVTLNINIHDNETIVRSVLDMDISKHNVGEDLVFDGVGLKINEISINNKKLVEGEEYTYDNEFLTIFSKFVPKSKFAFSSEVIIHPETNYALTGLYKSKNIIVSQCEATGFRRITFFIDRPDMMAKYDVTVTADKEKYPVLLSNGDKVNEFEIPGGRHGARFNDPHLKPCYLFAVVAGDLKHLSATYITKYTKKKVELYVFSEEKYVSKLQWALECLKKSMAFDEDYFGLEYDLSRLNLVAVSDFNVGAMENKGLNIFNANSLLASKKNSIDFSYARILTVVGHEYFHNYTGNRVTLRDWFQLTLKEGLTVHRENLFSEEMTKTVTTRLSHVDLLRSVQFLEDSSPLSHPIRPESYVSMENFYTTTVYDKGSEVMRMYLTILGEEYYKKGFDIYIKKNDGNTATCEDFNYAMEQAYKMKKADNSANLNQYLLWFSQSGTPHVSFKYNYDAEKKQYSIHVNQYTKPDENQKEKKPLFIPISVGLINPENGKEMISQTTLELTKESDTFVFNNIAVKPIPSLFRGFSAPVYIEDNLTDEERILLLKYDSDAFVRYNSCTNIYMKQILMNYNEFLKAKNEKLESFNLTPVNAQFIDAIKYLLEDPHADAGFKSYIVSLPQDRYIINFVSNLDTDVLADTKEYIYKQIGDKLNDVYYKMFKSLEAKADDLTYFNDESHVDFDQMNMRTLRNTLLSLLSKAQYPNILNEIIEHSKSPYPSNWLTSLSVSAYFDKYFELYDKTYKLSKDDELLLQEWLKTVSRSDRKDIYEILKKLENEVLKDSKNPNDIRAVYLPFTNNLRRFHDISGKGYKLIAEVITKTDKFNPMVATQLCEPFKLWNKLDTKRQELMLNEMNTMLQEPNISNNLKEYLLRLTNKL

[17] = target: T8, Aspartyl aminopeptidase (Plasmodium falciparum 3D7, UniProt Q8I2J3); assay: Counterscreen for inhibitors of M1 and M17 aminopeptidases: QFRET-based biochemical high throughput dose response assay for inhibitors of the Plasmodium falciparum M18 Aspartyl Aminopeptidase (PFM18AAP). [Related PubChem assays: 1619 (Screening assay (M17LAP inhibitors).), 1445 (Screening assay (M1AAP inhibitors).)]
T8 sequence (Q8I2J3 whole entry): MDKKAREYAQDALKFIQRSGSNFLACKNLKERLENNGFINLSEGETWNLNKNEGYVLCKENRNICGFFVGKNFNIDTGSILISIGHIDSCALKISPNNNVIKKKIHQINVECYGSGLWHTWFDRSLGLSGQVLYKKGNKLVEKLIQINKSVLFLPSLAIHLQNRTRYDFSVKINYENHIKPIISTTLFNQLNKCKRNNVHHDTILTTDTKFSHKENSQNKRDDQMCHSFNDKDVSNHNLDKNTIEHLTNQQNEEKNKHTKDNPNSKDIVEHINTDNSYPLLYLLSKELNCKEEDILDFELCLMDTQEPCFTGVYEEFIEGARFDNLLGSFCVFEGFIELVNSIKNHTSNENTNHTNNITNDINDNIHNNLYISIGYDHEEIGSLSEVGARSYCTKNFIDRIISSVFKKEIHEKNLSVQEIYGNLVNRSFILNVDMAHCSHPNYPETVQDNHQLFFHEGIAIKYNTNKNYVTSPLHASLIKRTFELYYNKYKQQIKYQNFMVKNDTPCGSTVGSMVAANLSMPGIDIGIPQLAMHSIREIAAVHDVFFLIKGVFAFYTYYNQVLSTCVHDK

[18] = target: Procathepsin L (Homo sapiens, UniProt P07711); assay: CTSL1 protease inhibition – biochemical, QFRET, 1536-well, counter-screen for M1/M17 aminopeptidase inhibitor project, dose response (AID 2214)
Procathepsin L, sequence (P07711 whole entry): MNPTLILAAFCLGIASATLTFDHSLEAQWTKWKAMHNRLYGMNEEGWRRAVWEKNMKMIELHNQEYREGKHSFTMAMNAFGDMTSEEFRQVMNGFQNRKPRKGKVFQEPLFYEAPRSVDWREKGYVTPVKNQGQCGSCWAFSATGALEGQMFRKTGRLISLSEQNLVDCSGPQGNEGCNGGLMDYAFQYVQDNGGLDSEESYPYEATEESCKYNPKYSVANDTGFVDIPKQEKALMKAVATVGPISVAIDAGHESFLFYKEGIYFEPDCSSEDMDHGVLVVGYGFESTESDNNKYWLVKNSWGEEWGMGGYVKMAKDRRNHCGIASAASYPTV

Intestinal-type alkaline phosphatase (Mus musculus, UniProt P24822), sequence (P24822 whole entry): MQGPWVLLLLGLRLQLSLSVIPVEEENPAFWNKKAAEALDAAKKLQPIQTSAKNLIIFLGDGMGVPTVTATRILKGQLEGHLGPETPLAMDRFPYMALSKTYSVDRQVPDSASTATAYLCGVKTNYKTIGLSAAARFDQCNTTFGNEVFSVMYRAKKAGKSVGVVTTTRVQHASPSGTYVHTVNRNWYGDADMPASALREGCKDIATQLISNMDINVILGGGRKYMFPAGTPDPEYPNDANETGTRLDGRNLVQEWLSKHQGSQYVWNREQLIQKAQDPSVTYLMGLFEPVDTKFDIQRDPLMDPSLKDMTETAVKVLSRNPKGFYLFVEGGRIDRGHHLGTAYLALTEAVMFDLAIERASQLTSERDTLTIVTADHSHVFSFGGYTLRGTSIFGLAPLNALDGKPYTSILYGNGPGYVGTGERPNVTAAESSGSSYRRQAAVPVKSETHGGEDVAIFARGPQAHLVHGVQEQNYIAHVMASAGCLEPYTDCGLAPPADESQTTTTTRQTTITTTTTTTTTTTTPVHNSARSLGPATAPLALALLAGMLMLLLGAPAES

Structure (SMILES): c1ccc(-c2ccccc2OCCOCCN2CCc3ccccc3C2)cc1
- IC50 [5]: 3.85 µM (active)
- IC50 [6]: 2.55 µM (active)

Structure (SMILES): CCOc1ccc(CC(=O)NNC(=S)NCCc2ccccc2)cc1
- EC50 [7]: 13.1 µM (active)

Structure (SMILES): CC(C)[C@H](NC(=O)[C@H](C)N)C(=O)N[C@@H](C)C(=O)Nc1cccc2ccccc12
- IC50 [10]: 103 µM (active)
- IC50 [11]: 1.8 µM (active)

Structure (SMILES): CCCSc1nnc(-c2c[nH]c3ccccc23)n1C
- IC50 [12]: > 50 µM (inactive)

Structure (SMILES): CN[C@@H](C)C(=O)N[C@H](C(=O)N[C@@H](C)C(=O)Nc1cccc2ncccc12)C(C)C
- IC50 [10]: > 100 µM (inactive)
- IC50 [11]: > 100 µM (inactive)

Structure (SMILES): CC(/C=C1\SC(=S)N(C(C(=O)O)c2ccccc2)C1=O)=C\c1ccccc1 (stereo unspecified)
- IC50 [13]: 38.5 µM (active)
- IC50 [14]: 26.8 µM (active)
- IC50 [15]: 10.9 µM (active)
- IC50 [16]: 12.4 µM (active)
- IC50 [17]: > 73.5 µM (not active)
- IC50 [18]: > 59.6 µM (not active)

Now from value to compound:

- IC50 [1]: 9.04 µM (active)
- IC50 [2]: > 100 µM (inactive)
- AC50 [3]: 2.62 µM (active)
- IC50 [4]: > 100 µM (inactive)
Structure (SMILES): O=C(CSc1nc2nn(-c3ccccc3)c(=O)c-2c2n1CCCCC2)c1ccc(O)c(O)c1

- IC50 [8]: 39.3 µM (active)
- IC50 [9]: 4.87 µM (active)
Structure (SMILES): O=C(CN1CCCc2ccccc21)c1ccc(O)c(O)c1

- IC50 [12]: > 50 µM (inactive)
Structure (SMILES): COc1ccc2cc(CN(CCO)C(=O)c3ccccc3F)c(=O)[nH]c2c1
